How the values were obtained:
Type in all cases: physicochemical
[1] = Loading capacity (limiting organic concentration); settings: 0.2 mol/L in TPH/1-octanol (95:5)%vol; 3 mol/L nitric acid
Description: The organic solutions were prepared and equilibrated with 3 mol/L nitric acid as detailed in the previously described sections A) and B.
Aqueous solutions of 3 mol/L nitric acid, spiked with 600 Bq of ^152Eu and 600 Bq of ^241Am, containing different amounts of stable Eu(III) (0.004 mol/L, 0.008 mol/L, 0.016 mol/L, 0.032 mol/L, 0.064 mol/L and 0.128 mol/L), obtained dissolving the corresponding amount of Eu (NO3)3·6H2O salt in 3 mol/L nitric acid, were prepared.
600 µL of equilibrated organic phase were contacted with 600 µL of aqueous phase of the corresponding concentration of Eu(III). It was stirred vigorously by means of an oscillating shaker for 15 minutes. The phases were separated by centrifugation at 5000 rpm and 400 µL of each of the phases were taken for the determination of the concentration of ^152Eu and ^241Am, as described previously in section C).
The loading capacity was determined according to the limiting organic concentration or LOC, which is the highest concentration of metal admitted by the organic phase before the third phase appears, as a result of the organic phase separating into two phases: a light or less heavy phase formed mainly by the organic solvent and a heavy phase formed by the complex formed by the extractant and the metal. […]

[2] = Batch extraction from simulated HLLW from the PUREX process, gamma spectrometry; settings: 0.1 mol/L in TPH/1-octanol (90:10)
Source text: The feed solution used for the extraction tests is a simulated solution of an HLLW from the PUREX process, the composition of which is shown in Table 4. Table 4: Composition of the simulated HLLW-PUREX solution used for the extraction tests
The composition of the HLLW corresponds to a burn-up of 33 GWd/tHM, the generated volume of HLLW being 5000 1/t of fuel. The feed was spiked with ^241Am, ^244Cm, ^252Cf and ^152Eu. Oxalic acid and N-(2-hydroxyethyl)ethylenediaminotriacetate (HEDTA) were also added before the extraction tests.
500 µL of the aqueous and organic phases were spiked with 10 µL of a tracer solution containing 241Am, 244Cm, 252Cf and ^152Eu, and were equilibrated for 10 minutes while they were stirred vigorously in a vortex stirrer. After the separation of the phases by centrifugation, 200 µL aliquots of each phase were taken for the determination of the concentration of ^241Am and ^152Eu using a high-purity germanium spectrometer system (EG&G Ortec). The nuclides ^241Am, ^244Cm and ^252Cf were measured by alpha spectrometry with an α-Analyst device of the company Canberra-Packard GmbH, Germany.
The concentrations of the stable elements were determined by mass spectrometry with an inductively coupled plasma source (ICP-MS) in a DRC Elan 6100 device of Perkin Elmer Sciex. The aqueous phase was measured directly after the appropriate dilution. The organic phase was analyzed after having mineralized the organic matter by microwave acid digestion and subsequent dilution.
The distribution coefficients were calculated for each element according to section C).
A 0.1 mol/L solution of compound 4 in the "TPH/1-octanol (90:10)%vol" mixture was prepared. Extraction experiments were carried out with said simulated HLLW in a pure form and also adding oxalic acid and HEDTA to it. These complexing agents have shown to be effective in the DIAMEX process for the complexing of Mo, Zr (H2C2O4) and Pd (HEDTA).
Extraction experiments were carried out with said simulated HLLW in a pure form and also adding oxalic acid and HEDTA to it.

Radiolytic stability = settings: 60Co irradiation, 4 kGy/h, up to 1000 kGy
Description: The tests of stability against irradiation were carried out in the NAYADE facility at CIEMAT site, with external ^60Co sources with an approximate activity of 5000 Ci, with a homogeneous irradiation flux. The dose rate applied in all the experiments was 4 kGy/h and integrated doses of 250 kGy, 500 kGy, 750 kGy and 1000 kGy were considered. The irradiation device consists of a metal cylinder which is introduced in a rack wherein the ^60CO sources are placed radially, such that the irradiation is homogeneous. The irradiation process is carried out submersing the device in a pool of water with a depth of 4 meters.
Irradiation tests of the solid compound (in the absence of solvent) and of the compound dissolved in the "n-dodecane/1-octanol (95:5)%vol" mixture, equilibrated with 3 mol/L nitric acid, were carried out. The organic solutions were prepared and equilibrated as detailed in the previous sections A) and B).
Once each programmed integrated dose was reached, the extraction capability of the organic samples was evaluated as detailed in section C).
The irradiation of compound 4 in solid form (in the absence of solvent) and dissolved at a 0.1 mol/L concentration in the "n-dodecane/1-octanol 1 (95:5)%vol" mixture, equilibrated with 3 mol/L nitric acid, was carried out. […] After each integrated dose, the extraction capability of Am(III) and Eu(III) was evaluated as described in section C. […]

[3] = Oxalic acid 0.2 mol/L, HEDTA 0.05 mol/L, TBP 0.5 mol/L
[4] = Oxalic acid 0.2 mol/L, HEDTA 0.05 mol/L, TBP No
[5] = Oxalic acid 0.3 mol/L, HEDTA 0.05 mol/L, TBP 0.5 mol/L
[6] = Oxalic acid 0.3 mol/L, HEDTA 0.05 mol/L, TBP No
[7] = Oxalic acid No, HEDTA No, TBP 0.5 mol/L
[8] = Oxalic acid No, HEDTA No, TBP No

Substance: 2-Dioctylcarbamoylmethoxy-N-[3-[3-(2-dioctylcarbamoyl-methoxyacetylamino)propoxy]propyl]acetamide [Compound 18]
- LOCEu [1]: ~ 0.06 mol/L
- Distribution coefficients Am-241, γ [2, 3]: 70
- Distribution coefficients Am-241, γ [2, 4]: 100
- Distribution coefficients Am-241, γ [2, 5]: 61
- Distribution coefficients Am-241, γ [2, 6]: 97
- Distribution coefficients Am-241, γ [2, 7]: 65
- Distribution coefficients Am-241, γ [2, 8]: 96
- stability against radiolysis (Radiolytic stability): very stable against radiolysis

Substance: 2-Dioctylcarbamoylmethoxy-N-[3-[(2-dioctylcarbamoyl-methoxy-acetylamino)methyl]benzyl]acetamide [Compound 4]
- LOCEu [1]: ~ 0.03 mol/L
- Distribution coefficients Am-241, γ [2, 3]: 63
- Distribution coefficients Am-241, γ [2, 4]: 131
- Distribution coefficients Am-241, γ [2, 5]: 82
- Distribution coefficients Am-241, γ [2, 6]: 141
- Distribution coefficients Am-241, γ [2, 7]: 70
- Distribution coefficients Am-241, γ [2, 8]: 99
- stability against radiolysis (Radiolytic stability): very stable against radiolysis

— EP1923473B1, “Bis-diglycolamides (BISDGA) as new extractants for lanthanides [Ln(III)] and actinides [An(III)] from aqueous high-level wastes” (Universidad Autónoma de Madrid, priority 2006, dated 2008)
